Legend:
SARS-CoV-2 PsV [1] = assay type: cell-based
SARS-CoV PsV = assay type: cell-based
VSV-G PsV = assay type: cell-based, vesicular stomatitis virus
SARS-CoV-2 PsV [2] = assay type: cell-based; remark: listed apart in the source
[3] = test system: SARS-CoV-2 (USA-WA1/2020); assay type: in vivo, K18-hACE2 mice infected with SARS-CoV-2; conditions: n = 8
[4] = assay type: in vivo, K18-hACE2 mice; conditions: n = 8
[5] = source not given; cited from earlier work

ACE2: recombinant human angiotensin-converting enzyme 2, soluble, R&D Systems
inhibition of SARS-CoV-2 PsV infection (SARS-CoV-2 PsV [1]): strongly inhibited | inhibition of SARS-CoV PsV infection (SARS-CoV PsV): strongly inhibited | inhibition of VSV-G PsV infection (VSV-G PsV): This trend is not observed | time at which inhibition equals that of empty filaments (SARS-CoV-2 PsV [2]): ≤ 6 h | viral load in SARS-CoV-2-infected lungs [3]: negligible effect on viral load | body weight loss [4]: similar | pI [5]: ≈ 5.36
